Data: EP0583566A2, “Process for the preparation of glycine-conjugated bile acids and relative pharmaceutical compositions useful for treating hepatic insufficiency” (ERREGIERRE INDUSTRIA CHIMICA Spa, priority 1992, dated 1994)
Like-named read-outs stand apart in the source and are kept apart here.

Legend:
[1] = critical micellar concentration (detergent capacity); type: physicochemical
[2] = in vivo
Description: (§1) GUDCA is well absorbed by the intestine through a double mechanism, i.e. active and passive, transported to the liver by the portal system and uptaken. It passes rapidly through the liver without being metabolized and is then secreted in the bile with high transport rate and efficiency.

[3] = test system: hepatotoxic effects of TUDCA; assay: hepatoprotective activity against bile acid hepatotoxicity on co-administration; type: in vivo; conditions: 0.8 µmol/min/100g
Description: Normal values of alkaline phosphatase (ALP) and biliary lactate dehydrogenase (LDH) as well as of bile flow and calcium secretion are thereby obtained.

uptake by the liver = type: in vivo
Description: as §1, with “efficiency. UDCA is absorbed only through a passive mechanism and is uptaken by liver at 50% (GUDCA at 80%).” for “efficiency.”

critical micellar concentration [1]	logP (physchem)	hepatic extraction ratio (uptake by the liver; in vivo)	pKa (pKa)	SMILES	Fa [2]	prevention of hepatotoxic effects ([3]; administered with TUDCA at the same dose)	alkaline phosphatase (ALP) and biliary lactate dehydrogenase (LDH) ([3]; for GUDCA also bile flow and calcium secretion normal)	pH values of the intestine contents at which absorbed [2]	hepatic extraction ratio (uptake by the liver; liver, read-out: uptaken by liver)
12 µM	2	0.8		C[C@H](CCC(=O)NCC(=O)O)[C@H]1CC[C@H]2[C@@H]3[C@@H](O)C[C@@H]4C[C@H](O)CC[C@]4(C)[C@H]3CC[C@]12C [GUDCA, glycoursodeoxycholic acid]	100%	can prevent the hepatotoxic effects	Normal values		
			~1	C[C@H](CCC(=O)NCCS(=O)(=O)O)[C@H]1CC[C@H]2[C@@H]3[C@@H](O)C[C@@H]4C[C@H](O)CC[C@]4(C)[C@H]3CC[C@]12C [TUDCA, tauroursodeoxycholic acid]					
				C[C@H](CCC(=O)O)[C@H]1CC[C@H]2[C@@H]3[C@@H](O)C[C@@H]4C[C@H](O)CC[C@]4(C)[C@H]3CC[C@]12C [UDCA, ursodeoxycholic acid]	50%			8.5	0.5
